Experimental data reported in PubChem BioAssay AID2060889 (Molecular Pharmacology Branch, DTP, NCI, 2025).
pIC50: −log10 of the molar value.

Tested on: LG0567-F671-PDC complex spheroids viability
Assay: Anticancer human tumor LG0567-F671-PDC patient-derived lung adenocarcinoma cell line growth inhibition [RAS]
Conditions: for viability, T/C: stronger effect = lower value
In short: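 Agents were tested in combination matrices in half-log decrements from a top concentration at or near clinical Cmax (10 microM if undetermined). Targets were multi-cell spheroids of tumour lines plus HUVEC and MSC stromal cells.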

[1] = curve of first compound, second compound 0.0316 µM
[2] = curve of first compound, second compound 0.1 µM
[3] = curve of first compound, second compound 0.316 µM
[4] = curve of first compound, second compound 1 µM
[5] = curve of first compound, second compound 3.16 µM
[6] = curve of first compound, second compound 10 µM
[7] = second compound 0.0316 µM, first compound 0.0316 µM
[8] = second compound 0.0316 µM, first compound 0.1 µM
[9] = second compound 0.0316 µM, first compound 0.316 µM
[10] = second compound 0.0316 µM, first compound 1 µM
[11] = second compound 0.0316 µM, first compound 3.16 µM
[12] = second compound 0.0316 µM, first compound 10 µM
[13] = second compound 0.1 µM, first compound 0.0316 µM
[14] = second compound 0.1 µM, first compound 0.1 µM
[15] = second compound 0.1 µM, first compound 0.316 µM
[16] = second compound 0.1 µM, first compound 1 µM
[17] = second compound 0.1 µM, first compound 3.16 µM
[18] = second compound 0.1 µM, first compound 10 µM
[19] = second compound 0.316 µM, first compound 0.0316 µM
[20] = second compound 0.316 µM, first compound 0.1 µM
[21] = second compound 0.316 µM, first compound 0.316 µM
[22] = second compound 0.316 µM, first compound 1 µM
[23] = second compound 0.316 µM, first compound 3.16 µM
[24] = second compound 0.316 µM, first compound 10 µM
[25] = second compound 1 µM, first compound 0.0316 µM
[26] = second compound 1 µM, first compound 0.1 µM
[27] = second compound 1 µM, first compound 0.316 µM
[28] = second compound 1 µM, first compound 1 µM
[29] = second compound 1 µM, first compound 3.16 µM
[30] = second compound 1 µM, first compound 10 µM
[31] = second compound 3.16 µM, first compound 0.0316 µM
[32] = second compound 3.16 µM, first compound 0.1 µM
[33] = second compound 3.16 µM, first compound 0.316 µM
[34] = second compound 3.16 µM, first compound 1 µM
[35] = second compound 3.16 µM, first compound 3.16 µM
[36] = second compound 3.16 µM, first compound 10 µM
[37] = second compound 10 µM, first compound 0.0316 µM
[38] = second compound 10 µM, first compound 0.1 µM
[39] = second compound 10 µM, first compound 0.316 µM
[40] = second compound 10 µM, first compound 1 µM
[41] = second compound 10 µM, first compound 3.16 µM
[42] = second compound 10 µM, first compound 10 µM
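Also: spheroids exposed to compound for seven days before readout.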
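For pIC50 in this document: luminescence signal used as a proxy for viable cells.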

Compound `CC(Nc1ccc2c(c1)OCCn1cc(N3C(=O)OCC3C(F)F)nc1-2)C(N)=O` (stereo not drawn) + C#Cc1c(F)ccc2cc(O)cc(-c3ncc4c(N5CC6CCC(C5)N6)nc(OCC56CCCN5CC(F)C6)nc4c3F)c12 has a pIC50 [1] of 6.69, a pIC50 [2] of 6.68 and a pIC50 [3] of 7.41. It also gave a pIC50 [4] greater than 7.50, a pIC50 [5] greater than 7.50 and a pIC50 [6] greater than 7.50. For the same compound, the viability, T/C [7] was 77.6%, the viability, T/C [8] was 56.2% and the viability, T/C [9] was 46.9%. For the same compound, the viability, T/C [10] was 38.2%, the viability, T/C [11] was 35% and the viability, T/C [12] was 31.9%. For the same compound, the viability, T/C [13] was 73.5%, the viability, T/C [14] was 62.1% and the viability, T/C [15] was 43.2%. For the same compound, the viability, T/C [16] was 32.1%, the viability, T/C [17] was 30.7% and the viability, T/C [18] was 26%. For the same compound, the viability, T/C [19] was 53.1%, the viability, T/C [20] was 38% and the viability, T/C [21] was 31.3%. It also gave a viability, T/C [22] of 30.3%, a viability, T/C [23] of 28.4% and a viability, T/C [24] of 22.2%. It also gave a viability, T/C [25] of 26.7%, a viability, T/C [26] of 25.6% and a viability, T/C [27] of 20.9%. It also gave a viability, T/C [28] of 19.1%, a viability, T/C [29] of 18.3% and a viability, T/C [30] of 14.8%. For the same compound, the viability, T/C [31] was 16.6%, the viability, T/C [32] was 14.6% and the viability, T/C [33] was 11.5%. The viability, T/C [34] was 12.6%, the viability, T/C [35] was 10% and the viability, T/C [36] was 7.52%. For the same compound, the viability, T/C [37] was 9.27%, the viability, T/C [38] was 6.91% and the viability, T/C [39] was 5.66%. It also gave a viability, T/C [40] of 5.21%, a viability, T/C [41] of 5.4% and a viability, T/C [42] of 4.6%.
With `C=CC(=O)N1CCN(c2nc(OCC3CCCN3C)nc3c(F)c(-c4nc(N)cc(C)c4C(F)(F)F)c(Cl)cc23)C(C)C1` (stereo not drawn) the viability, T/C (compound 0.00316 µM) was 16.6% [middle of 12 runs], the viability, T/C (compound 0.01 µM) was 14.1% [middle of 12 runs] and the viability, T/C (compound 0.0316 µM) was 13.4% [middle of 12 runs]. For the same compound, the viability, T/C (compound 0.1 µM) was 13.5% [middle of 12 runs], the viability, T/C (compound 0.316 µM) was 13.8% [middle of 12 runs] and the viability, T/C (compound 1 µM) was 15.5% [middle of 12 runs]. The pIC50 (compound alone, run of 09/09/2024) was greater than 8.50 and the pIC50 (curve of compound) was greater than 8.50.
`CCn1c(-c2cc(N3CCN(C)CC3)cnc2C(C)OC)c2c3cc(ccc31)-c1csc(n1)CC(NC(=O)C1CC1C)C(=O)N1CCCC(N1)C(=O)OCC(C)(C)C2` (stereo not drawn) was tested, and the viability, T/C (compound 0.000949 µM) was 25.7% [middle of 8 runs], the viability, T/C (compound 0.003 µM) was 11.3% [middle of 8 runs] and the viability, T/C (compound 0.00949 µM) was 6.53% [middle of 8 runs]. The viability, T/C (compound 0.03 µM) was 4.27% [middle of 8 runs], the viability, T/C (compound 0.0949 µM) was 3.45% [middle of 8 runs] and the viability, T/C (compound 0.3 µM) was 2.94% [middle of 8 runs]. The pIC50 (compound alone, run of 08/26/2024) was greater than 9.02.
Compound `C[C@@H](NC(=O)c1ncnc(N)c1Cl)c1ncc(C(=O)Nc2cc(C(F)(F)F)c(Cl)cn2)s1` + C#Cc1c(F)ccc2cc(O)cc(-c3ncc4c(N5CC6CCC(C5)N6)nc(OCC56CCCN5CC(F)C6)nc4c3F)c12 has a pIC50 [1] of less than 5.00, a pIC50 [2] of less than 5.00 and a pIC50 [3] of 5.12. For the same compound, the pIC50 [4] was greater than 7.50, the pIC50 [5] was greater than 7.50 and the pIC50 [6] was greater than 7.50. For the same compound, the viability, T/C [7] was 99.1%, the viability, T/C [8] was 100% and the viability, T/C [9] was 125%. For the same compound, the viability, T/C [10] was 103%, the viability, T/C [11] was 94.9% and the viability, T/C [12] was 56.1%. The viability, T/C [13] was 81.2%, the viability, T/C [14] was 105% and the viability, T/C [15] was 88.8%. For the same compound, the viability, T/C [16] was 92.8%, the viability, T/C [17] was 82% and the viability, T/C [18] was 57%. It also gave a viability, T/C [19] of 73.5%, a viability, T/C [20] of 80.9% and a viability, T/C [21] of 74.2%. For the same compound, the viability, T/C [22] was 67.7%, the viability, T/C [23] was 67% and the viability, T/C [24] was 44.7%. It also gave a viability, T/C [25] of 40.5%, a viability, T/C [26] of 43.7% and a viability, T/C [27] of 52.5%. The viability, T/C [28] was 42.5%, the viability, T/C [29] was 51.8% and the viability, T/C [30] was 34%. For the same compound, the viability, T/C [31] was 26.1%, the viability, T/C [32] was 28.6% and the viability, T/C [33] was 29.2%. It also gave a viability, T/C [34] of 25.6%, a viability, T/C [35] of 26.6% and a viability, T/C [36] of 23.2%. The viability, T/C [37] was 14.9%, the viability, T/C [38] was 17.1% and the viability, T/C [39] was 16.5%. The viability, T/C [40] was 19.4%, the viability, T/C [41] was 21.2% and the viability, T/C [42] was 17.9%.
`CCC(CC)c1cc(NC2CCC(N)C2)n2nccc2n1` (stereo not drawn) + C=CC(=O)N1CCN(c2nc(OCC3CCCN3C)nc3c(F)c(-c4nc(N)cc(C)c4C(F)(F)F)c(Cl)cc23)C(C)C1 was tested, and the pIC50 (curve of first compound, second compound 0.00316 µM) was greater than 7.50, the pIC50 (curve of first compound, second compound 0.01 µM) was greater than 7.50 and the pIC50 [1] was greater than 7.50. For the same compound, the pIC50 [2] was greater than 7.50, the pIC50 [3] was greater than 7.50 and the pIC50 [4] was greater than 7.50. For the same compound, the viability, T/C (second compound 0.00316 µM, first compound 0.0316 µM) was 18.7%, the viability, T/C (second compound 0.00316 µM, first compound 0.1 µM) was 16.5% and the viability, T/C (second compound 0.00316 µM, first compound 0.316 µM) was 17.8%. For the same compound, the viability, T/C (second compound 0.00316 µM, first compound 1 µM) was 15.8%, the viability, T/C (second compound 0.00316 µM, first compound 3.16 µM) was 3.58% and the viability, T/C (second compound 0.00316 µM, first compound 10 µM) was 0.33%. For the same compound, the viability, T/C (second compound 0.01 µM, first compound 0.0316 µM) was 12.8%, the viability, T/C (second compound 0.01 µM, first compound 0.1 µM) was 13.4% and the viability, T/C (second compound 0.01 µM, first compound 0.316 µM) was 15.6%. It also gave a viability, T/C (second compound 0.01 µM, first compound 1 µM) of 12.7%, a viability, T/C (second compound 0.01 µM, first compound 3.16 µM) of 3.96% and a viability, T/C (second compound 0.01 µM, first compound 10 µM) of 0.45%. For the same compound, the viability, T/C [7] was 11.5%, the viability, T/C [8] was 11.6% and the viability, T/C [9] was 12.2%. It also gave a viability, T/C [10] of 11.2%, a viability, T/C [11] of 3.67% and a viability, T/C [12] of 0.43%. For the same compound, the viability, T/C [13] was 11.6%, the viability, T/C [14] was 16.4% and the viability, T/C [15] was 12.2%. For the same compound, the viability, T/C [16] was 10.4%, the viability, T/C [17] was 3.67% and the viability, T/C [18] was 0.68%. It also gave a viability, T/C [19] of 11.4%, a viability, T/C [20] of 11.2% and a viability, T/C [21] of 12.8%. The viability, T/C [22] was 11.4%, the viability, T/C [23] was 4.66% and the viability, T/C [24] was 0.75%. For the same compound, the viability, T/C [25] was 14.2%, the viability, T/C [26] was 14.3% and the viability, T/C [27] was 14.3%. It also gave a viability, T/C [28] of 12.2%, a viability, T/C [29] of 4.35% and a viability, T/C [30] of 0.62%.
With `CCn1c(-c2cccnc2C(C)OC)c2c3cc(ccc31)N1CCOC(CC(NC(=O)C(C(C)C)N(C)C(=O)C3(F)CCN(C(=O)C#CC(C)(C)N(C)C)CC3)C(=O)N3CCCC(N3)C(=O)OCC(C)(C)C2)C1` (stereo not drawn) the viability, T/C (compound 0.000949 µM) was 15.2% [middle of 8 runs], the viability, T/C (compound 0.003 µM) was 15% [middle of 8 runs] and the viability, T/C (compound 0.00949 µM) was 15.1% [middle of 7 runs]. The viability, T/C (compound 0.03 µM) was 13.5% [middle of 8 runs], the viability, T/C (compound 0.0949 µM) was 12.2% [middle of 8 runs] and the viability, T/C (compound 0.3 µM) was 10.3% [middle of 8 runs]. It also gave a pIC50 (compound alone, run of 08/20/2024) greater than 9.02.
